Counter-ions that a name gives are not always drawn.
Columns and labels:
calcium channel currents = assay: Whole cell recording of calcium currents from cultured hippocampal neurons; format: cell-based; settings: 2 µM, p = 0.044
Protocol: (§1) Briefly, the following procedure was used.
(§2) Whole cell recording techniques were used to record calcium and potassium currents from cultured hippocampal neurons. The compounds to be evaluated were made fresh each day in a 400 µM ethanol stock solution. The test compounds were diluted in saline to obtain a final concentration of 2 µM. The amplitude of calcium or potassium currents in control, test compound, and washout solutions was measured from at least 10 current traces for each condition. To compensate for rundown of the calcium current with time, control and washout currents were averaged. The current amplitude with drug was divided by the averaged control and washout current to determine the percent change. The means, standard deviations and errors for each test compound were calculated and significance from control was determined using the paired T-Test.

[1] = test system: potassium channel currents; assay: Whole cell recording of potassium currents from cultured hippocampal neurons; format: cell-based; settings: 2 µM, p = 0.0006
Protocol: as §1, §2

progesterone receptors = molecular target: T1, progesterone receptors (Homo sapiens, UniProt P06401); assay: Stimulation of alkaline phosphatase enzyme activity in T47D cells (progestational activity)
T1 sequence (P06401 1-933): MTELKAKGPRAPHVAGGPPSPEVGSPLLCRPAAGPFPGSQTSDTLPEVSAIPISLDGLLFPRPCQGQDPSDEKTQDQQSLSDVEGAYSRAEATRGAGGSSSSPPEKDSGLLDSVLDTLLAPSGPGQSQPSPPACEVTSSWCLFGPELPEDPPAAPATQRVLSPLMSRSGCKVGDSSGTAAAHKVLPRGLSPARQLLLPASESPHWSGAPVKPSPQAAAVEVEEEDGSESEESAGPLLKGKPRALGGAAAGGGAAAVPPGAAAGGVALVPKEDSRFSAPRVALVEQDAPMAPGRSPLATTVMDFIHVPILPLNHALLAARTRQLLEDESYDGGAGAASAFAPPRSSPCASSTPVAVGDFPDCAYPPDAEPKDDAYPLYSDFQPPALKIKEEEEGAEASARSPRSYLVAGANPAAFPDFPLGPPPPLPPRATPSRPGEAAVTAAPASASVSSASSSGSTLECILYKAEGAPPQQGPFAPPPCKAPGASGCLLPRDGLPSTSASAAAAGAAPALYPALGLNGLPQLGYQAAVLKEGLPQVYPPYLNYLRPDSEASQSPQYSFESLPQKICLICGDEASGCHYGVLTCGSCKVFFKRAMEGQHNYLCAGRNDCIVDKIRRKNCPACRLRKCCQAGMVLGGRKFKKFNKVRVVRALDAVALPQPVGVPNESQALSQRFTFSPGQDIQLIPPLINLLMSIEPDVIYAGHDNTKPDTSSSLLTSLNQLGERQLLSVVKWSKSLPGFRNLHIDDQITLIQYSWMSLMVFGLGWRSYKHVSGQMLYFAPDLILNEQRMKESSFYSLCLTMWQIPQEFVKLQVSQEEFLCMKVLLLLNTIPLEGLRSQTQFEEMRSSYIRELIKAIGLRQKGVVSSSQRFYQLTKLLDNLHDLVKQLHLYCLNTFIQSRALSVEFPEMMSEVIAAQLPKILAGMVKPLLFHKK
Protocol: The progestational activity of a representative compound of this invention (5α-pregnan-3β-ol-20-one 3-sulfate ester sodium salt) was evaluated in an in vitro standard pharmacological test procedure.
In this test procedure, the progestational activity of a compound is quantified based on its stimulation of alkaline phosphatase enzyme activity in T47D cells, a human breast cancer cell line which expresses high levels of progesterone receptors. This is a well established test procedure in which both the progestin receptors and the response stimulated by activated progestin receptors are endogenous to the cells. Cells are pre-conditioned in low serum medium for one day and then treated with test compounds. Alkaline phosphatase activity is measured 24 hr after treatment.

| SMILES | Calcium channel currents decrease versus control (calcium channel currents) [%] | increased potassium channel currents versus control [1] [%] | EC50 (progesterone receptors) [µM] | fold induction of alkaline phosphatase (progesterone receptors; t47d cells, 24 h) |
| --- | --- | --- | --- | --- |
| CC(=O)[C@H]1CC[C@H]2[C@@H]3CC[C@H]4C[C@@H](OS(=O)(=O)O)CC[C@]4(C)[C@H]3CC[C@]12C [5α-pregnan-3β-ol-20-one 3-sulfate ester sodium salt] | 4.64 ± 1.64 | 21.76 ± 2.40 | 5 |  |
| CC(=O)O[C@]1(C(C)=O)CC[C@H]2[C@@H]3C[C@H](C)C4=CC(=O)CC[C@]4(C)[C@H]3CC[C@@]21C [medroxyprogesterone acetate, reference compound] |  |  |  | 30 - 60 fold |
